Starred links: 1 amine or outer side, 2 acyl side, 3 side chain; linkers in the order of their positions; H or OH if unused. Non-standard residues stand in square brackets, D forms with d. Residues, ends and D or L forms follow the SMILES beside them. *: point of attachment. Palmitoyl = CCCCCCCCCCCCCCCC(=O)*; AzaAla = CN(N[*:1])C(=O)[*:2]
Columns and labels:
[1] = target: T1, GIPR (Homo sapiens, UniProt P48546); assay: cAMP luciferase reporter assay, GIPR agonism; format: cell-based
T1 sequence (P48546 22-466): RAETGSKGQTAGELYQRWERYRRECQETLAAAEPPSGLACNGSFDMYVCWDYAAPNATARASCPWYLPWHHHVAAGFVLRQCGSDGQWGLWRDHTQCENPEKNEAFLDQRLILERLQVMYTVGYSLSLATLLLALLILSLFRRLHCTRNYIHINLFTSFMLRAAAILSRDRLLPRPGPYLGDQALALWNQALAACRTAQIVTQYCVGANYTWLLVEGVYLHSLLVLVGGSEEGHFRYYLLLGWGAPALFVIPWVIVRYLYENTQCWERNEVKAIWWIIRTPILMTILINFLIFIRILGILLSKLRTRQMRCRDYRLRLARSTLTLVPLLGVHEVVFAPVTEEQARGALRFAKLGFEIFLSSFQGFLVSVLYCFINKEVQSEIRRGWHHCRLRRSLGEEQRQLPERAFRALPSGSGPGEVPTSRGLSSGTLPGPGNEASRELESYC

[2] = target: T2, GLP-1R (Homo sapiens, UniProt P43220)
[3] = target: T2, GLP-1R; assay: cAMP luciferase reporter assay, GLP-1R agonism; format: cell-based
[4] = target: T2, GLP-1R; conditions: alanine scanning of GLP-1; cited from earlier work

T2 sequence (P43220 24-463): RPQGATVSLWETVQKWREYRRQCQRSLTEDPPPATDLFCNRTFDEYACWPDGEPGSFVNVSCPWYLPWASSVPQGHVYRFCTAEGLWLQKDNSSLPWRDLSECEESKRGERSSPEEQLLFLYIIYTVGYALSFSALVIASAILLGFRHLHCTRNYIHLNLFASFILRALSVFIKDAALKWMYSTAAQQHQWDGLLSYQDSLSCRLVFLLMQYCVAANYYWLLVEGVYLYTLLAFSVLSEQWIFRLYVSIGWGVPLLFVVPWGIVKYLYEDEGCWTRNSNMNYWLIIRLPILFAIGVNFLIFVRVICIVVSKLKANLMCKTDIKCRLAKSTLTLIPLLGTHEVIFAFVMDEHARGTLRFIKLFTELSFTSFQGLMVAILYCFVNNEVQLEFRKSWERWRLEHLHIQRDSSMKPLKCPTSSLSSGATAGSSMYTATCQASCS

Row | Compound | EC50 [1] [pM] | efficacy compared to native ligand (in words) ([1]; GIPR, cAMP luciferase reporter assay) | Fold-Shift (↓) = (EC50 with DPP4)/(EC50 without DPP4) [2] | efficacy compared to native ligand (in words) [3] | adenylyl cyclase activity (in words) [4]
1 | CCCCCCCCCCCCCCCC(=O)NCCCC[C@H](NC(=O)[C@H](CO)NC(=O)[C@@H]1CCCN1C(=O)[C@@H]1CCCN1C(=O)[C@@H]1CCCN1C(=O)[C@H](C)NC(=O)CNC(=O)[C@H](CO)NC(=O)[C@H](CO)NC(=O)[C@@H]1CCCN1C(=O)CNC(=O)CNC(=O)[C@H](C)NC(=O)[C@H](CC(C)C)NC(=O)[C@H](CC(C)C)NC(=O)[C@H](Cc1c[nH]c2ccccc12)NC(=O)[C@H](CC(N)=O)NC(=O)[C@@H](NC(=O)[C@H](Cc1ccccc1)NC(=O)[C@H](CCC(=O)O)NC(=O)[C@H](C)NC(=O)[C@H](C)NC(=O)[C@H](C)NC(=O)[C@H](CCC(N)=O)NC(=O)[C@H](CCCCN)NC(=O)[C@H](CC(=O)O)NC(=O)[C@H](CC(C)C)NC(=O)[C@H](Cc1ccc(O)cc1)NC(=O)[C@@H](NC(=O)[C@H](CO)NC(=O)[C@H](Cc1ccc(O)cc1)NC(=O)[C@H](CC(=O)O)NC(=O)[C@H](CO)NC(=O)[C@@H](NC(=O)[C@H](Cc1ccccc1)NC(=O)[C@@H](NC(=O)CNC(=O)[C@H](CCC(=O)O)NC(=O)N(C)NC(=O)[C@@H](N)Cc1ccc(O)cc1)[C@@H](C)O)[C@@H](C)O)[C@@H](C)CC)C(C)C)C(N)=O [DA X2AzaA, X20A] (H-Y[AzaAla]EGTFTSDYSIYLDKQAAAEFVNWLLAGGPSSGAPPPSK(Palmitoyl)-NH2; N-terminus and C-terminus assumed) | 2.51 | equiefficacious | 1.0 | equiefficacious | 
2 | Glu9Ala variant: literature alanine-scan variant of GLP-1 (HDEFERHAAGTFTSDVSSYLEGQAAKEFIAWLVKGRG; Glucagon-like peptide 1; UniProt P01275 92-128, looked up, variant E9A) |  |  |  |  | equivalent adenylyl cyclase activity

Source: publication PMC13242721 (Angewandte Chemie (International ed. in English), 2024)
